By Kd is commonly meant the free concentration of one partner at which half of the binding sites on the other are occupied at equilibrium, for simple one-to-one binding.

Structures are written as SMILES.

Consider three molecules from paper PMC11039641, “Structural and biochemical analysis of family 92 carbohydrate-binding modules uncovers multivalent binding to β-glucans” (Nature Communications, 2024).

For one assay, the target named is T1, CpCBM92B (Chitinophaga pinensis, UniProt A0A979GQH9).
T1 construct: gene Cpin_2580; single CBM92 domain (incl. Arg955, Asp959 of beta subdomain), locus and borders only in supplement; His6-tagged, E. coli BL21 (DE3)
In words: X-ray crystallography of soaked crystal. In kind it is binding. The note with it: sites in alpha, beta and gamma subdomains, saturating ligand soak.

Another assay has as its target T2, CpCBM92A (Chitinophaga pinensis, UniProt A0A979GQH9).
T2 construct: gene Cpin_2580; single CBM92 domain (three WExF motifs incl. W481, W523, W565), borders only in supplement; pET21a, C-terminal His6, E. coli BL21 (DE3)
In words: isothermal titration calorimetry. The note with it: 50 mM sodium phosphate pH 6.5; three equivalent binding sites (N fixed to 3). The text has this:
isothermal titration calorimetry on CpCBM92A
(Isothermal titration calorimetry measures the heat released or taken up as one component is titrated into another.)

T2 sequence (A0A979GQH9 entry or part of it): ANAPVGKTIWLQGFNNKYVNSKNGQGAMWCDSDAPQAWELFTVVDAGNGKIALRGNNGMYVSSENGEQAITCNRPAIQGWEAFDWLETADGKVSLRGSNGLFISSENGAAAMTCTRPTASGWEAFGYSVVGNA
T1 sequence (A0A979GQH9 entry or part of it): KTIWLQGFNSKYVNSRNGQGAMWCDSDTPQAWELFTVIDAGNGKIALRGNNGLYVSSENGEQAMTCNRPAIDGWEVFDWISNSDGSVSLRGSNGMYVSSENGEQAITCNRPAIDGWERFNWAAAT

Turning to `OC[C@H]1O[C@@H](OC[C@H]2OC(O)[C@H](O)[C@@H](O)[C@@H]2O)[C@H](O)[C@@H](O)[C@@H]1O` (stereo partly drawn) [G2, gentiobiose], the “X-ray crystallography of soaked crystal” value at CpCBM92B (non-reducing end sugar in cleft) is “Adding either G2 or S2 to the protein crystals led to binding”. In addition, the Kd at CpCBM92A amounted to 202 ± 40 µM.
On to `OC[C@H]1O[C@@H](O[C@H]2C(O)O[C@H](CO)[C@@H](O)[C@@H]2O)[C@H](O)[C@@H](O)[C@@H]1O` (stereo partly drawn) [S2, sophorose], for which, at CpCBM92B, the “X-ray crystallography of soaked crystal” value is “Adding either G2 or S2 to the protein crystals led to binding”. Also, the equilibrium dissociation constant (Kd) on CpCBM92A came out at 882 ± 107 µM.
`OC[C@H]1OC(O)[C@H](O)[C@@H](O)[C@@H]1O` (stereo partly drawn) [glucose]: on CpCBM92B, the “X-ray crystallography of soaked crystal” value is reported as “Soaking experiments of the CpCBM92B protein crystals with glucose, gentiobiose”. Besides, the Kd on CpCBM92A was 1840 ± 200 µM.
